In publication PMC6277767, “Broad and Region-Specific Impacts of the Synthetic Cannabinoid CP 55,940 in Adolescent and Adult Female Mouse Brains” (Frontiers in Molecular Neuroscience, 2018):

System: CD1 female mouse brain lipidome
Test: Brain-region lipid levels (HPLC/MS/MS lipidomics) 2 h after single i.p. 3 mg/kg CP 55,940 vs vehicle
Assay type: in vivo
Settings: cerebellum, 3 mg/kg CP 55,940
Method: The Bloomington Institutional Animal Care and Use Committee of Indiana University reviewed and approved the animal procedures. Female mice from the CD1 strain were utilized to match our study examining THC’s effects on the brain lipidome ([Leishman et al., 2018]). Mice were given a single i.p. injection of either 3 mg/kg CP or 1:1:18 cremophor:ethanol:saline vehicle (please refer to the section “3 mg/kg CP Is Relevant for Synthetic Cannabinoid Abuse and Has Stronger Effects on the Female Mouse Brain Lipidome During Adolescence” for a justification of dose and use of female mice). Three different age groups were given injections: PND 35 and PND 50 adolescents, and adult mice (PND 113). At least eight mice in each age group received CP and at least eight received vehicle. Matching the THC study time course ([Leishman et al., 2018]), mice were sacrificed via rapid decapitation 2 h after injection. Brains were immediately removed and flash-frozen in liquid nitrogen, and then stored at -80°C until dissections were performed. Brains were dissected on an ice-cold dissection plate into the following regions: STR, HIPP, CER, THAL, CTX, HYP, MID, and STEM. These abbreviations for these brain areas will be used exclusively when discussing the results generated by these specific dissections. Each dissected area was immediately placed in liquid nitrogen and then stored at -80°C until used for lipid extraction.
Tissue extracts were performed as previously described ([Bradshaw et al., 2006]; [Stuart et al., 2013]; [Raboune et al., 2014]; [Leishman et al., 2016a],[b], [2017], [2018]). First, samples were shock frozen in liquid nitrogen, weighed, and transferred to a centrifuge tube. The mass of the largest sample was multiplied by 50 to determine how many milliliters of HPLC-grade methanol (Fisher, Fair Lawn, NJ, United States) to add. Then, samples were spiked with 500 pmol deuterium-labeled NAGly (d8NAGly; Cayman Chemical, Ann Arbor, MI, United States). Samples were placed on ice in darkness for 2 h then individually homogenized and centrifuged at 19,000 × g for 20 min at 20°C. Supernatants were diluted with HPLC water (purified in house) to make a solution of 75% water, 25% supernatant. Lipids were partially purified on C18 solid phase extraction columns (Agilent, Palo Alto, CA, United States). A series of four elutions with 1.5 mL of 60%, 75%, 85%, and 100% methanol were collected ([Stuart et al., 2013]; [Leishman et al., 2016a],[b], [2018]).
As previously described ([Bradshaw et al., 2006]; [Tan et al., 2006]; [Smoum et al., 2010]; [Stuart et al., 2013]; [Tortoriello et al., 2013]; [Raboune et al., 2014]; [Leishman et al., 2016a],[b], [2017], [2018]), samples were analyzed using an Applied Biosystems API 3000 triple quadrupole mass spectrometer with electrospray ionization (Foster City, CA, United States). Using an Agilent XDB-C18 reversed phase analytical column and optimized mobile phase gradients, 20 μL from each elution were chromatographed. Two Shimadzu 10ADvp pumps (Columbia, MD, United States) provided the pressure for gradient elution. Mobile phase A: 20% methanol, 80% water (v/v) and 1 mM ammonium acetate (Sigma, St. Louis, MO, United States). Mobile phase B: 100% methanol, 1 mM ammonium acetate. Every method run began with 0% mobile phase B, reached 100% mobile phase B flowing at 0.2 mL/min, and gradually returned to 0% mobile phase B.
This screening library will be referred to as the lipidome when discussing data from this study. HPLC/MS/MS data were analyzed using Analyst software (Applied Biosystems) ([Bradshaw et al., 2006]; [Tan et al., 2006]; [Stuart et al., 2013]; [Tortoriello et al., 2013]; [Raboune et al., 2014]; [Leishman et al., 2016a],[b], [2017], [2018]). Chromatograms (Supplementary Figure 3) were generated by determining the retention time of analytes from the analytical column with a [M-1] or [M+1] parent peak and a fragmentation peak corresponding to the programmed values. […]

## CCCCCCC(C)(C)c1ccc([C@@H]2C[C@H](O)CC[C@H]2CCCO)c(O)c1 [CP 55,940]
adult
  PGE2: Magnitude (x Veh level): 0.70 x Veh level
  PGF2α: Direction (relative to Veh): ↓
  PGF2α: Magnitude (x Veh level): 0.67 x Veh level
  phosphoLEA: Direction (relative to Veh): ↓
  phosphoLEA: Magnitude (x Veh level): 0.71 x Veh level
PND 35
  2-arachidonoyl glycerol: Direction (relative to Veh): ↓
  2-arachidonoyl glycerol: Magnitude (x Veh level): 0.80 x Veh level
  2-linoleoyl glycerol: Direction (relative to Veh): ↓
  2-linoleoyl glycerol: Magnitude (x Veh level): 0.75 x Veh level
  6-ketoPGF1α: Magnitude (x Veh level): 0.61 x Veh level
  Arachidonic acid: Direction (relative to Veh): ↓
  Arachidonic acid: Magnitude (x Veh level): 0.92 x Veh level
  N-arachidonoyl GABA: Direction (relative to Veh): ↓
  N-arachidonoyl GABA: Magnitude (x Veh level): 0.72 x Veh level
  N-arachidonoyl alanine: Direction (relative to Veh): ↓
  N-arachidonoyl alanine: Magnitude (x Veh level): 0.71 x Veh level
  N-arachidonoyl glycine: Direction (relative to Veh): ↓
  N-arachidonoyl glycine: Magnitude (x Veh level): 0.89 x Veh level
  N-arachidonoyl methionine: Direction (relative to Veh): ↓
  N-arachidonoyl methionine: Magnitude (x Veh level): 0.63 x Veh level
  N-arachidonoyl serine: Direction (relative to Veh): ↓
  N-arachidonoyl serine: Magnitude (x Veh level): 0.74 x Veh level
  N-arachidonoyl taurine: Direction (relative to Veh): ↓
  N-arachidonoyl taurine: Magnitude (x Veh level): 0.87 x Veh level
  N-arachidonoyl tyrosine: Direction (relative to Veh): ↓
  N-arachidonoyl tyrosine: Magnitude (x Veh level): 0.70 x Veh level
  N-docosahexaenoyl GABA: Direction (relative to Veh): ↓
  N-docosahexaenoyl GABA: Magnitude (x Veh level): 0.81 x Veh level
  N-docosahexaenoyl alanine: Direction (relative to Veh): ↓
  N-docosahexaenoyl alanine: Magnitude (x Veh level): 0.72 x Veh level
  N-docosahexaenoyl glycine: Direction (relative to Veh): ↓
  N-docosahexaenoyl glycine: Magnitude (x Veh level): 0.92 x Veh level
  N-docosahexaenoyl leucine: Direction (relative to Veh): ↑
  N-docosahexaenoyl leucine: Magnitude (x Veh level): 1.44 x Veh level
  N-docosahexaenoyl serine: Direction (relative to Veh): ↓
  N-docosahexaenoyl serine: Magnitude (x Veh level): 0.72 x Veh level
  N-docosahexaenoyl tyrosine: Direction (relative to Veh): ↓
  N-docosahexaenoyl tyrosine: Magnitude (x Veh level): 0.84 x Veh level
  N-linoleoyl glycine: Direction (relative to Veh): ↓
  N-linoleoyl glycine: Magnitude (x Veh level): 0.89 x Veh level
  N-linoleoyl leucine: Direction (relative to Veh): ↑
  N-linoleoyl leucine: Magnitude (x Veh level): 1.29 x Veh level
  N-linoleoyl phenylalanine: Direction (relative to Veh): ↑
  N-linoleoyl phenylalanine: Magnitude (x Veh level): 1.28 x Veh level
  N-oleoyl GABA: Direction (relative to Veh): ↓
  N-oleoyl GABA: Magnitude (x Veh level): 0.83 x Veh level
  N-oleoyl ethanolamine: Direction (relative to Veh): ↓
  N-oleoyl ethanolamine: Magnitude (x Veh level): 0.81 x Veh level
  N-oleoyl leucine: Direction (relative to Veh): ↑
  N-oleoyl leucine: Magnitude (x Veh level): 1.25 x Veh level
  N-oleoyl phenylalanine: Direction (relative to Veh): ↑
